For 5 molecules, MIC and Activity results are on record in ChEMBL document CHEMBL1158142, “Bionectins A-C, epidithiodioxopiperazines with anti-MRSA activity, from Bionectra byssicola F120” (2006).

As usually defined, the MIC is the lowest concentration found to suppress growth.

Values after ≈ are worked out from the molar mass of the structure shown. Active and inactive are the calls of the source. No cut-off for these calls is given here.

For assay [1], the system named is Staphylococcus aureus. The assay is described as follows: Antibacterial activity against Staphylococcus aureus 503 after 24 hrs. The class given is functional.
Assay [2] has as its system Staphylococcus aureus. The assay is described as follows: Antibacterial activity against methicillin-resistant Staphylococcus aureus CCARM3167 after 24 hrs. Type of assay: functional.
For assay [3], the system named is Staphylococcus aureus. The assay is described as follows: Antibacterial activity against Staphylococcus aureus RN4220 after 24 hrs. Type of assay: functional. The following applies: RN4220, 24 h.
In assay [4] the test system is Staphylococcus aureus. The assay is described as follows: Antibacterial activity against methicillin-sensitive Staphylococcus aureus CCARM3505 after 24 hrs. The class given is functional.
Assay [5] deals with Staphylococcus aureus. The assay is described as follows: Antibacterial activity against methicillin-sensitive Staphylococcus aureus CCARM3519 after 24 hrs. Type of assay: functional.
Assay [6] deals with Staphylococcus aureus. The assay is described as follows: Antibacterial activity against methicillin-resistant Staphylococcus aureus CCARM3506 after 24 hrs. The class given is functional.
The test system of assay [7] is Staphylococcus aureus. The assay is described as follows: Antibacterial activity against Staphylococcus aureus 503 up to 100 ug/mL after 24 hrs. Type of assay: functional, organism-based.
Assay [8] relates to Staphylococcus aureus. The assay is described as follows: Antibacterial activity against methicillin-sensitive Staphylococcus aureus CCARM3505 up to 100 ug/mL after 24 hrs. Type of assay: functional, organism-based.
The test system of assay [9] is Staphylococcus aureus. The assay is described as follows: Antibacterial activity against methicillin-resistant Staphylococcus aureus CCARM3506 up to 100 ug/mL after 24 hrs. Type of assay: functional, organism-based.
In assay [10] the test system is Staphylococcus aureus. The assay is described as follows: Antibacterial activity against methicillin-resistant Staphylococcus aureus CCARM3167 up to 100 ug/mL after 24 hrs. Type of assay: functional, organism-based.
Assay [11] relates to Staphylococcus aureus. The assay is described as follows: Antibacterial activity against Staphylococcus aureus RN4220 up to 100 ug/mL after 24 hrs. Type of assay: functional, organism-based.
For assay [12], the system named is Staphylococcus aureus. The assay is described as follows: Antibacterial activity against methicillin-sensitive Staphylococcus aureus CCARM3519 up to 100 ug/mL after 24 hrs. The class given is functional, organism-based.

Take `CN[C@H](CC(C)C)C(=O)N[C@H]1C(=O)N[C@@H](CC(N)=O)C(=O)N[C@H]2C(=O)N[C@H]3C(=O)N[C@H](C(=O)N[C@H](C(=O)O)c4cc(O)cc(O)c4-c4cc3ccc4O)[C@H](O)c3ccc(c(Cl)c3)Oc3cc2cc(c3O[C@@H]2O[C@H](CO)[C@@H](O)[C@H](O)[C@H]2O[C@H]2C[C@](C)(N)[C@H](O)[C@H](C)O2)Oc2ccc(cc2Cl)[C@H]1O` [VANCOMYCIN]: the MIC against Staphylococcus aureus [1] came out at 0.25 µg/mL (≈ 0.173 µM).

For the molecule `CC(O)[C@@]12SS[C@]3(C(=O)N1C)[C@@H](O)[C@]1(c4c[nH]c5ccccc45)c4ccccc4N[C@@H]1N3C2=O` (stereo not given in full) [BIONECTIN B], the MIC stood at 10 µg/mL (≈ 20.2 µM) with Staphylococcus aureus [2]; 30 µg/mL (≈ 60.7 µM) in the assay on Staphylococcus aureus [3]; 30 µg/mL (≈ 60.7 µM) in the assay with Staphylococcus aureus [1]; 30 µg/mL (≈ 60.7 µM) with Staphylococcus aureus [4]; 30 µg/mL (≈ 60.7 µM) against Staphylococcus aureus [5]; 10 µg/mL (≈ 20.2 µM) with Staphylococcus aureus [6].

On to `CC(O)[C@@]12SS[C@]3(C(=O)N1C)[C@@H](O)C1([C@@]45c6ccccc6N[C@@H]4N4C(=O)[C@]6(C(C)O)SS[C@]4(C(=O)N6C)[C@H]5O)c4ccccc4N[C@@H]1N3C2=O` (stereo not given in full) [VERTICILLIN D], for which the MIC with Staphylococcus aureus [2] was found to be 3 µg/mL (≈ 3.96 µM); with Staphylococcus aureus [3], 3 µg/mL (≈ 3.96 µM); against Staphylococcus aureus [1], 3 µg/mL (≈ 3.96 µM); against Staphylococcus aureus [4] it was 10 µg/mL (≈ 13.2 µM); in the assay on Staphylococcus aureus [5] it was 10 µg/mL (≈ 13.2 µM); with Staphylococcus aureus [6], 3 µg/mL (≈ 3.96 µM).

Take `CS[C@H]1C(=O)N2[C@H]3Nc4ccccc4[C@@]3(c3c[nH]c4ccccc34)[C@H](O)[C@]2(SC)C(=O)N1C`: the result in the assay with Staphylococcus aureus [7], in the assay on Staphylococcus aureus [8], in the assay with Staphylococcus aureus [9], with Staphylococcus aureus [10], with Staphylococcus aureus [11] and in the assay on Staphylococcus aureus [12] was inactive.

For the molecule `CN1C(=O)[C@]23SS[C@H]1C(=O)N2[C@H]1Nc2ccccc2[C@@]1(c1c[nH]c2ccccc12)[C@@H]3O` [BIONECTIN A], the MIC in the assay on Staphylococcus aureus [2] is 30 µg/mL (≈ 66.6 µM); against Staphylococcus aureus [3] it was 10 µg/mL (≈ 22.2 µM); against Staphylococcus aureus [1] it was 10 µg/mL (≈ 22.2 µM); against Staphylococcus aureus [4], 10 µg/mL (≈ 22.2 µM); in the assay on Staphylococcus aureus [5], 10 µg/mL (≈ 22.2 µM); in the assay on Staphylococcus aureus [6], 30 µg/mL (≈ 66.6 µM).
